# Measurements: patent US20260265233A1, “BENZOTHIOPHENE DERIVATIVES AS RXFP1 AGONISTS” (BRISTOL-MYERS SQUIBB COMPANY, priority 2021, published 2026)
# Tests used:
# human RXFP1 = molecular target: T1, human RXFP1 (Homo sapiens, UniProt Q9HBX9); assay: hRXFP1 HEK293 cAMP assay (HTRF); format: cell-based; details: HEK293 cells stably expressing human RXFP1; 30 min at rt; intracellular cAMP by HTRF
# T1 construct: expressed in transfected cells
# T1 sequence (Q9HBX9 1-757): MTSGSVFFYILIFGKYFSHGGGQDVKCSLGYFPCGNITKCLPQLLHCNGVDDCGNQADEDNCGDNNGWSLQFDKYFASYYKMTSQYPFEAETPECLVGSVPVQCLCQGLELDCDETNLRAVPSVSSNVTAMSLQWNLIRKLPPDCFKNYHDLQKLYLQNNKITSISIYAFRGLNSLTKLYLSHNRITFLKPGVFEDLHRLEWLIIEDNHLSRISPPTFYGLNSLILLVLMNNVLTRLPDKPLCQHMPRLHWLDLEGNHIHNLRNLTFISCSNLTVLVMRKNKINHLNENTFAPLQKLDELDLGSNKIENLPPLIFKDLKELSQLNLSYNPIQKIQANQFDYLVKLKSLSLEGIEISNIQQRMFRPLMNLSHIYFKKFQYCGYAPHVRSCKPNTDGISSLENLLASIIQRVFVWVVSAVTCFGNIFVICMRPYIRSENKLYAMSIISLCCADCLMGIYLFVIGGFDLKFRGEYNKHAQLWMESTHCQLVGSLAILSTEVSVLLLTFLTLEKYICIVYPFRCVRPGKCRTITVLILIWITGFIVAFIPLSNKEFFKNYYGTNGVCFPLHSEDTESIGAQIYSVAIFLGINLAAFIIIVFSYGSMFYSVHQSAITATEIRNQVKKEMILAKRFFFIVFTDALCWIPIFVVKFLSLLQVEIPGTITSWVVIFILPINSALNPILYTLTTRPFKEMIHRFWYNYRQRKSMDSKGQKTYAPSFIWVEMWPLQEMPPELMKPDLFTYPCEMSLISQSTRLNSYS
# Method in brief: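 HEK293 cells stably expressing human RXFP1 treated 30 min at rt with compound (0.010 nM to 50 μM, 2% DMSO) in HBSS/HEPES buffer with 0.5 mM IBMX. Intracellular cAMP measured by HTRF (665/590 nm ratio) against a cAMP standard curve; potency fitted by 4-parameter logistic.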
# [1] = intravenous (IV) formulation; cited from earlier work
Compound,EC50 (human RXFP1),first-phase pharmacokinetic half-life [1]
"COc1ccc(C2=NOC3(C2)CN(C(=O)C(C)(C)O)C3)cc1C(=O)Nc1c(C(=O)Nc2ccc(F)c(C(F)(F)F)c2)sc2cc(C(F)(F)F)ccc12 [Example 284, N-(4-fluoro-3-(trifluoromethyl)phenyl)-3-(5-(2-(2-hydroxy-2-methylpropanoyl)-5-oxa-2,6-diazaspiro[3.4]oct-6-en-7-yl)-2-methoxy-benzamido)-6-(trifluoromethyl) benzo[b] thiophene-2-carboxamide]",1300 nM,–
"COc1ccc(C2=NOC3(C2)CN(C(=O)CO)C3)cc1C(=O)Nc1c(C(=O)Nc2ccc(F)c(C(F)(F)F)c2)sc2cc(C(F)(F)F)ccc12 [Example 285, N-(4-fluoro-3-(trifluoromethyl)phenyl)-3-(5-(2-(2-hydroxyacetyl)-5-oxa-2,6-diazaspiro[3.4]oct-6-en-7-yl)-2-methoxy-benzamido)-6-(trifluoromethyl) benzo[b] thiophene-2-carboxamide]",1860 nM,–
"COc1ccc(C2=NOC3(CNC3)C2)cc1C(=O)Nc1c(C(=O)Nc2ccc(F)c(C(F)(F)F)c2)sc2cc(C(F)(F)F)ccc12 [Example 286, N-(4-fluoro-3-(trifluoromethyl)phenyl)-3-(2-methoxy-5-(5-oxa-2,6-diazaspiro[3.4]oct-6-en-7-yl)benzamido)-6-(trifluoromethyl) benzo[b] thiophene-2-carboxamide]",5000 nM,–
"COc1ccc(-c2cc(CO)on2)cc1C(=O)Nc1c(C(=O)Nc2ccc(F)c(C(F)(F)F)c2)sc2cc(C(F)(F)F)ccc12 [Example 287, N-(4-fluoro-3-(trifluoromethyl)phenyl)-3-(5-(5-(hydroxymethyl)isoxazol-3-yl)-2-methoxy-benzamido)-6-(trifluoromethyl) benzo[b] thiophene-2-carboxamide]",1260 nM,–
"COc1ccc(-c2cc(C(=O)O)ccc2F)cc1C(=O)Nc1c(C(=O)Nc2ccc(F)c(C(F)(F)F)c2)sc2nc(C)ccc12 [Example 288, 6-fluoro-3′-[(2-{[4-fluoro-3-(trifluoromethyl)phenyl]carbamoyl}-6-methylthieno[2,3-b]pyridin-3-yl)carbamoyl]-4′-methoxy-[1,1′-biphenyl]-3-carboxylic acid]",4260 nM,–
"COc1ccc(-c2cc(C(=O)O)ccc2F)cc1C(=O)Nc1c(C(=O)Nc2ccc(F)c(C(F)(F)F)c2)sc2ncccc12 [Example 289, 6-fluoro-3′-[(2-{[4-fluoro-3-(trifluoromethyl)phenyl]carbamoyl}thieno[2,3-b]pyridin-3-yl)carbamoyl]-4′-methoxy-[1,1′-biphenyl]-3-carboxylic acid]",2050 nM,–
"COc1ccc(N2CCCC2=O)cc1C(=O)Nc1c(C(=O)Nc2ccc(F)c(C(F)(F)F)c2)sc2cc(C(F)(F)F)ccc12 [Example 290, N-[4-fluoro-3-(trifluoromethyl)phenyl]-3-[2-methoxy-5-(2-oxopyrrolidin-1-yl)benzamido]-6-(trifluoromethyl)-1-benzothiophene-2-carboxamide]",1410 nM,–
"(R)-6-chloro- N-(4-fluoro-3- (trifluoromethyl) phenyl)-3-(5- (2- (hydroxymethyl) morpholine- 4-carbonyl)-2- methoxy- benzamido) thieno[3, 2-c]pyridine-2- carboxamide [Example 239]",2100 nM,–
"N-(4-fluoro-3- (trifluoromethyl) phenyl)-3-(4- methoxy-3′- (morpholino- sulfonyl)-[1,1′- biphenyl]-3- carboxamido)- 6- (trifluoromethyl) benzo[b] thiophene-2- carboxamide [Example 122]",41.8 nM,–
"Serelaxin: ""an intravenous (IV) formulation of the recombinant human relaxin peptide with a relatively short first-phase pharmacokinetic half-life of 0.09 hours""",–,5.4 min
